Experimental data from patent US6667303B1, “Aryl substituted 1,4-diazepanes and method of use thereof” (Wyeth, priority 2001, dated 2003).

What follows are compounds tested against T1, human serotonin 5HT2C receptor (Homo sapiens, UniProt P28335) (assay: saturation binding with increasing concentrations of [125I] DOI). Conditions: not given.
T1 construct: expressed in transfected cells; host or cells: CHO (Chinese Hamster Ovary) cells; membrane preparation
T1 sequence (P28335 33-458): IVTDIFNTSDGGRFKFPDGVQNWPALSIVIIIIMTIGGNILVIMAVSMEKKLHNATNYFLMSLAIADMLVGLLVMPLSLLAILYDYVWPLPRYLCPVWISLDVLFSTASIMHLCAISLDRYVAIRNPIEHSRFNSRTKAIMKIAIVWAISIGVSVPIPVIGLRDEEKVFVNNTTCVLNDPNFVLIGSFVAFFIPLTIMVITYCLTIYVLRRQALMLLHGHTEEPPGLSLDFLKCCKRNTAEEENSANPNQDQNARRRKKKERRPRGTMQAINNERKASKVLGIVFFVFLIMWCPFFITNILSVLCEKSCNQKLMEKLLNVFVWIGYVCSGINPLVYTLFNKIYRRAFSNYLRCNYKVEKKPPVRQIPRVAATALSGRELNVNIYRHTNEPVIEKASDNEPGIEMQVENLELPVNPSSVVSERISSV
Procedure: To determine for compounds of Formula (I) the affinity for the 5HT2C receptor, the following 5HT2C receptor binding assay was performed. A CHO (Chinese Hamster Ovary) cell line transfected with the cDNA expressing the human 5-hydroxytryptamine2C (h5HT2C) receptor was maintained in DMEM (Dulbecco's Modified Eagle Media) supplied with fetal calf serum, glutamine, and the markers: guaninephosphoribosyl transferase (GTP) and hypoxanthinethymidine (HT). The cells were allowed to grow to confluence in large culture dishes with intermediate changes of media and splitting. Upon reaching confluence, the cells were harvested by scraping. The harvested cells were suspended in half volume of fresh physiological phosphate buffered saline (PBS) solution and centrifuged at low speed (900×g). This operation was repeated once more. […] The resulting pellet was resuspended in a small volume of Tris.HCl buffer and the tissue protein content was determined in aliquots of 10-25 microliter (μl) volumes. […]
The dissociation constant, KD of [^125I] […] Nonspecific binding was measured in the presence of 1 μM unlabeled DOI added in 20.0 μl volume. […] The bound complex caught on the filter disk was dried in a vacuum oven heated to 60° C. and the radioactivity measured by liquid scintillation with 40 μl Microscint-20 scintillant in a Packard TopCount® equipped with six (6) photomultiplier detectors.
With `COc1cc(CC(C)N)c(OC)cc1I` (stereo not shown) [[^125I] DOI, 1-(4-iodo-2,5-dimethoxyphenyl)-2-aminopropane] the Kd was 0.4 nM.

These compounds were tested against T2, human 5-hydroxytryptamine2C (h5HT2C) receptor (Homo sapiens, UniProt P28335) (assay: 5HT2C receptor binding assay ([125I] DOI displacement)). Conditions: not given.
T2 construct: expressed in transfected cells; host or cells: CHO (Chinese Hamster Ovary) cells; membrane preparation
T2 sequence (P28335 33-458): T1 sequence (P28335 33-458)
Procedure: To determine for compounds of Formula (I) the affinity for the 5HT2C receptor, the following 5HT2C receptor binding assay was performed. A CHO (Chinese Hamster Ovary) cell line transfected with the cDNA expressing the human 5-hydroxytryptamine2C (h5HT2C) receptor was maintained in DMEM (Dulbecco's Modified Eagle Media) supplied with fetal calf serum, glutamine, and the markers: guaninephosphoribosyl transferase (GTP) and hypoxanthinethymidine (HT). The cells were allowed to grow to confluence in large culture dishes with intermediate changes of media and splitting. Upon reaching confluence, the cells were harvested by scraping. The harvested cells were suspended in half volume of fresh physiological phosphate buffered saline (PBS) solution and centrifuged at low speed (900×g). This operation was repeated once more. The collected cells were then homogenized with a polytron at setting #7 for 15 sec in ten volumes of 50 mM Tris.HCl, pH 7.4 and 0.5 mM EDTA. The homogenate was centrifuged at 900×g for 15 min to remove nuclear particles and other cell debris. The pellet was discarded and the supernatant fluid recentrifuged at 40,000×g for 30 min. The resulting pellet was resuspended in a small volume of Tris.HCl buffer and the tissue protein content was determined in aliquots of 10-25 microliter (μl) volumes. Bovine Serum Albumin (BSA) was used as the standard in the protein determination by the method of Lowry et al., (J. Biol. Chem., 193:265 (1951)). The volume of the suspended cell membranes was adjusted with 50 mM Tris.HCl buffer containing: 0.1% ascorbic acid, 10 mM pargyline and 4 mM CaCl2 to give a tissue protein concentration of 1-2 mg per ml of suspension. The preparation membrane suspension (many times concentrated) was aliquoted in 1 ml volumes and stored at −70° C. until used in subsequent binding experiments.
Binding experiments were performed in a 96 well microtiter plate format, in a total volume of 200 μl. To each well was added: 60 μl of incubation buffer made in 50 mM Tris.HCl buffer, pH 7.4 and containing 4 mM CaCl2; 20 μl of […] DOI [1-(4-iodo-2,5-dimethoxyphenyl)-2-aminopropane] (S.A., 2200 Ci/mmol, NEN Life Science).
DOI. The reaction was initiated by the final addition of 100.0 μl of tissue suspension containing 50 μg of receptor protein. Nonspecific binding was measured in the presence of 1 μM unlabeled DOI added in 20.0 μl volume. Test compounds are added in […]. The mixture was incubated at room temperature for 60 min. The incubation was stopped by rapid filtration. The bound ligand-receptor complex was filtered off on a 96 well unifilter with a Packard® Filtermate 196 Harvester. The bound complex caught on the filter disk was dried in a vacuum oven heated to 60° C. and the radioactivity measured by liquid scintillation with 40 μl Microscint-20 scintillant in a Packard TopCount® equipped with six (6) photomultiplier detectors.
Description of this method can be found in Sanders-Bush, E. et al., Putative selective 5-HT2C antagonists block serotonin 5-HT1C receptors in the choroid plexus, J. Pharmacol. Exper. Ther., 247: 169-173 (1988), and Akiyoshi, J., et al., Effects of antidepressants on intracellular calcium mobilization in CHO cells transfected with the human 5-HT2C receptors, Biol. Psychiatry, 39:1000-1008 (1996).
Specific binding is defined as the total radioactivity bound less the amount bound in the presence of 1 μM unlabeled DOI. Binding in the presence of varying concentrations of test drugs was expressed as percent of specific binding in the absence of drug. […] Alternatively, a linear regression line of decline of data points was plotted, from which the IC50 value was read off the curve and the Ki value determined by solving the following equation: [formula]
`COc1cc(CC(C)N)c(OC)cc1I` (stereo not shown) [DOI, 1-(4-iodo-2,5-dimethoxyphenyl)-2-aminopropane, reference compound] was tested, and the Ki was 19.5 nM. For `C=CCN1CCCN(c2ccc3c4c(cccc24)C(=O)N3CC2CCC2)CC1` [Example 22, 6-(4-allyl-1,4-diazepan-1-yl)-1-(cyclobutylmethyl)benzo[cd]indol-2(1H)-one], the Ki was 241 nM. `CC(C)CN1CCCN(c2ccc3c4c(cccc24)C(=O)N3CC2CCC2)CC1` [Example 24, 1-(cyclobutylmethyl)-6-(4-isobutyl-1,4-diazepan-1-yl)benzo[cd]indol-2(1H)-one] showed a Ki of 260 nM. For `O=C1c2cccc3c(N4CCCN(CC5CCC5)CC4)ccc(c23)N1CC1CCC1` [Example 32, 1-(cyclobutylmethyl)-6-[4-(cyclobutylmethyl)-1,4-diazepan-1-yl]benzo[cd]indol-2(1H)-one], the Ki was 256 nM. For `CCCCCN1CCCN(c2ccc3c4c(cccc24)C(=O)N3CCCC(F)(F)F)CC1` [Example 80, 6-(4-pentyl-1,4-diazepan-1-yl)-1-(4,4,4-trifluorobutyl)benzo[cd]indol-2(1H)-one], the Ki was 190 nM.

Same assay, conditions: membranes of CHO cells expressing h5HT2C; radioligand [125I] DOI; room temperature, 60 min; read-out: 5HT2C Binding Affinity Ki
In the case of `COc1ccc(CN2C(=O)c3cccc4c(N5CCCN(CC(C)(C)C)CC5)ccc2c34)cc1` [Example 5, 1-(4-methoxybenzyl)-6-(4-neopentyl-1,4-diazepan-1-yl)benzo[cd]indol-2(1H)-one], the Ki is reported as 132 nM. Work on `COc1ccc(CN2C(=O)c3cccc4c(N5CCCN(CCCc6ccccc6)CC5)ccc2c34)cc1` [Example 11] yielded a Ki of 165 nM. `COc1ccc(CN2C(=O)c3cccc4c(N5CCCN(CC6CCC6)CC5)ccc2c34)cc1` [Example 13, 6-[4-(cyclobutylmethyl)-1,4-diazepan-1-yl]-1-(4-methoxybenzyl)benzo[cd]indol-2(1H)-one] showed a Ki of 257 nM. `O=C1c2cccc3c(N4CCCN(CCc5ccccc5)CC4)ccc(c23)N1CC1CCC1` [Example 28, 1-(cyclobutylmethyl)-6-[4-(2-phenylethyl)-1,4-diazepan-1-yl]benzo[cd]indol-2(1H)-one] showed a Ki of 178 nM. With `CCCCCN1CCCN(c2ccc3c4c(cccc24)C(=O)N3CC)CC1` [Example 44, 1-ethyl-6-(4-pentyl-1,4-diazepan-1-yl)benzo[cd]indol-2(1H)-one] the Ki was 247 nM. `O=C1c2cccc3c(N4CCCN(CCc5ccccc5)CC4)ccc(c23)N1CCCC(F)(F)F` [Example 85, 6-[4-(2-phenylethyl)-1,4-diazepan-1-yl]-1-(4,4,4-trifluorobutyl)benzo[cd]indo-2(1H)-one] gave a Ki of 112 nM. `CCCN1CCCN(c2ccc3c4c(cccc24)C(=O)N3Cc2ccc(OC)cc2)CC1` [Example 88, 1-(4-methoxybenzyl)-6-(4-propyl-1,4-diazepan-1-yl)benzo[cd]indol-2(1H)-one] was tested, and the Ki was 243 nM.
